# Key:
# Type in all cases: in vivo
# Conditions in all cases: treatment dosage 320 g/ha
# barnyard grass [1] = experiment: Test Example 2: weedkilling efficacy, growth period weed treatment in the submerged state; A: barnyard grass
# How it was run: (§1)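 Seedlings at 1-2 leaves in 4 cm-deep submerged alluvial soil received emulsion formulations on the water surface, dosed per hectare; effects were judged 3 weeks on.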
# birds-eye speedwell = experiment: Test Example 4: weedkilling efficacy by foliar treatment; p: birds-eye speedwell
# How it was run: (§2)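 Seeds are spot-sown into sterilized diluvial soil and covered with about 1.5 cm of soil. After 14 days' greenhouse growth at 25 to 30° C, plants are sprayed on stems and leaves with diluted emulsion at the stated g/ha rate, then scored at 3 weeks.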
# barnyard grass [2] = experiment: Test Example 1: weedkilling efficacy, preemergent weed treatment in the submerged state; A: barnyard grass
# How it was run: (§3)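 Submerged pre-emergence treatment, water-surface application of compound emulsion at g/ha dosages; 4 cm flooded alluvial soil, weeds sown and 2.5-leaf rice transplanted same day. Rated after 3 weeks, greenhouse.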
# black-grass [3] = experiment: Test Example 3: weedkilling efficacy through soil treatment; H: black-grass
# How it was run: (§4)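 Crop and weed responses were judged three weeks after a uniform surface spray of the water-diluted emulsion at the given g/ha rate. Seeds sat beneath about 1.5 cm of sterilized diluvial soil, and boxes stood in a greenhouse at 25 to 30° C.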
# fig-leafed goosefoot [4] = experiment: Test Example 4: weedkilling efficacy by foliar treatment; M: fig-leafed goosefoot
# How it was run: as §2
# soybean [5] = experiment: Test Example 4: foliar treatment, effect on crop; d: soybean
# How it was run: as §2
# wild oat [6] = experiment: Test Example 4: weedkilling efficacy by foliar treatment; G: wild oat
# How it was run: as §2
# redroot pigweed [7] = experiment: Test Example 4: weedkilling efficacy by foliar treatment; L: redroot pigweed
# How it was run: as §2
# catchweed [8] = experiment: Test Example 3: weedkilling efficacy through soil treatment; O: catchweed
# How it was run: as §4
# fig-leafed goosefoot [9] = experiment: Test Example 3: weedkilling efficacy through soil treatment; M: fig-leafed goosefoot
# How it was run: as §4
# black-grass [10] = experiment: Test Example 4: weedkilling efficacy by foliar treatment; H: black-grass
# How it was run: as §2
# wheat [11] = experiment: Test Example 3: soil treatment, effect on crop; e: wheat
# How it was run: as §4
# common wind-grass [12] = experiment: Test Example 4: weedkilling efficacy by foliar treatment; J: common wind-grass
# Description: Testing of Weedkilling Efficacy by Foliar Treatment
# Sterilized diluvial soil was introduced into 21 cm long, 13 cm wide, 7 cm deep plastic boxes, and seeds of crabgrass, green foxtail, barnyard grass, wild oat, black-grass, Italian ryegrass, common wind-grass, Indian mallow, redroot pigweed, fig-leafed goosefoot, chickweed, catchweed, birds-eye speedwell, corn, soybean, rice, wheat, beet and rapeseed were each spot-sown, and covered with about 1.5 cm of soil, then the plants were grown in a greenhouse at 25 to 30° C.
# After they had grown for 14 days, emulsions of compounds of the present invention prepared according to compounding example 2 were diluted with water to give the specified dosages, and applied uniformly onto the stem and leaf parts with a small sprayer. 3 weeks after the pesticide treatment the effect on each type of plant was investigated on the basis of the assessment criteria of test example 1.
# A: barnyard grass, B: bulrush, C: oval-leafed pondweed, D: crabgrass, E: green foxtail, F: barnyard grass, G: wild oat, H: black-grass, I: Italian ryegrass, J: common wind-grass, K: Indian mallow, L: redroot pigweed, M: fig-leafed goosefoot, N: chickweed, O: catchweed, p: birds-eye speedwell, a: transplanted rice, b: directly sown rice, c: corn, d: soybean, e: wheat, f: beet, g: rapeseed
# Further, pesticide dosage (g/ha) indicates the concentration regulated such that treatment was with only the stated number of grams (g), when calculated per hectare (ha).
# catchweed [13] = experiment: Test Example 4: weedkilling efficacy by foliar treatment; O: catchweed
# How it was run: as §2
# bulrush [14] = experiment: Test Example 2: weedkilling efficacy, growth period weed treatment in the submerged state; B: bulrush
# How it was run: as §1
# Indian mallow [15] = experiment: Test Example 4: weedkilling efficacy by foliar treatment; K: Indian mallow
# How it was run: as §2
# oval-leafed pondweed [16] = experiment: Test Example 2: weedkilling efficacy, growth period weed treatment in the submerged state; C: oval-leafed pondweed
# How it was run: as §1
# chickweed [17] = experiment: Test Example 4: weedkilling efficacy by foliar treatment; N: chickweed
# How it was run: as §2
# corn [18] = experiment: Test Example 4: foliar treatment, effect on crop; c: corn
# How it was run: as §2
# wild oat [19] = experiment: Test Example 3: weedkilling efficacy through soil treatment; G: wild oat
# How it was run: as §4
# soybean [20] = experiment: Test Example 3: soil treatment, effect on crop; d: soybean
# How it was run: as §4
# Italian ryegrass [21] = experiment: Test Example 3: weedkilling efficacy through soil treatment; I: Italian ryegrass
# How it was run: as §4
# corn [22] = experiment: Test Example 3: soil treatment, effect on crop; c: corn
# How it was run: as §4
# wheat [23] = experiment: Test Example 4: foliar treatment, effect on crop; e: wheat
# How it was run: as §2
# redroot pigweed [24] = experiment: Test Example 3: weedkilling efficacy through soil treatment; L: redroot pigweed
# How it was run: as §4
# common wind-grass [25] = experiment: Test Example 3: weedkilling efficacy through soil treatment; J: common wind-grass
# How it was run: as §4
# bulrush [26] = experiment: Test Example 1: weedkilling efficacy, preemergent weed treatment in the submerged state; B: bulrush
# How it was run: as §3
# oval-leafed pondweed [27] = experiment: Test Example 1: weedkilling efficacy, preemergent weed treatment in the submerged state; C: oval-leafed pondweed
# How it was run: as §3
# Italian ryegrass [28] = experiment: Test Example 4: weedkilling efficacy by foliar treatment; I: Italian ryegrass
# How it was run: as §2
# beet [29] = experiment: Test Example 3: soil treatment, effect on crop; f: beet
# How it was run: as §4
# transplanted rice = experiment: Test Example 1: preemergent weed treatment in the submerged state, effect on crop; a: transplanted rice
# How it was run: as §3
# beet [30] = experiment: Test Example 4: foliar treatment, effect on crop; f: beet
# How it was run: as §2
# Indian mallow [31] = experiment: Test Example 3: weedkilling efficacy through soil treatment; K: Indian mallow
# How it was run: as §4
# chickweed [32] = experiment: Test Example 3: weedkilling efficacy through soil treatment; N: chickweed
# How it was run: as §4
smiles,measurement,setting,value
COC(=O)c1ccnc(NC(=O)C(C)(C)N2COC(C)=C(c3ccccc3)C2=O)c1 [B-2-61],A (barnyard grass) weedkilling efficacy grade,barnyard grass [1],0 (weed kill ratio 5% or less (practically no effect))
same,P (birds-eye speedwell) weedkilling efficacy grade,birds-eye speedwell,"2 (weed kill ratio 20% or more, less than 40%)"
same,A (barnyard grass) weedkilling efficacy grade,barnyard grass [2],0 (weed kill ratio 5% or less (practically no effect))
same,H (black-grass) weedkilling efficacy grade,black-grass [3],"4 (weed kill ratio 70% or more, less than 90%)"
same,M (fig-leafed goosefoot) weedkilling efficacy grade,fig-leafed goosefoot [4],0 (weed kill ratio 5% or less (practically no effect))
same,d (soybean) effect on crop grade,soybean [5],0 (weed kill ratio 5% or less (practically no effect))
same,G (wild oat) weedkilling efficacy grade,wild oat [6],0 (weed kill ratio 5% or less (practically no effect))
same,L (redroot pigweed) weedkilling efficacy grade,redroot pigweed [7],0 (weed kill ratio 5% or less (practically no effect))
same,O (catchweed) weedkilling efficacy grade,catchweed [8],0 (weed kill ratio 5% or less (practically no effect))
same,M (fig-leafed goosefoot) weedkilling efficacy grade,fig-leafed goosefoot [9],0 (weed kill ratio 5% or less (practically no effect))
same,H (black-grass) weedkilling efficacy grade,black-grass [10],0 (weed kill ratio 5% or less (practically no effect))
same,e (wheat) effect on crop grade,wheat [11],0 (weed kill ratio 5% or less (practically no effect))
same,J (common wind-grass) weedkilling efficacy grade,common wind-grass [12],"1 (weed kill ratio 5% or more, less than 20%)"
same,O (catchweed) weedkilling efficacy grade,catchweed [13],0 (weed kill ratio 5% or less (practically no effect))
same,B (bulrush) weedkilling efficacy grade,bulrush [14],"2 (weed kill ratio 20% or more, less than 40%)"
same,K (Indian mallow) weedkilling efficacy grade,Indian mallow [15],0 (weed kill ratio 5% or less (practically no effect))
same,C (oval-leafed pondweed) weedkilling efficacy grade,oval-leafed pondweed [16],"2 (weed kill ratio 20% or more, less than 40%)"
same,N (chickweed) weedkilling efficacy grade,chickweed [17],0 (weed kill ratio 5% or less (practically no effect))
same,c (corn) effect on crop grade,corn [18],0 (weed kill ratio 5% or less (practically no effect))
same,G (wild oat) weedkilling efficacy grade,wild oat [19],0 (weed kill ratio 5% or less (practically no effect))
same,d (soybean) effect on crop grade,soybean [20],0 (weed kill ratio 5% or less (practically no effect))
same,I (Italian ryegrass) weedkilling efficacy grade,Italian ryegrass [21],"2 (weed kill ratio 20% or more, less than 40%)"
same,c (corn) effect on crop grade,corn [22],0 (weed kill ratio 5% or less (practically no effect))
same,e (wheat) effect on crop grade,wheat [23],0 (weed kill ratio 5% or less (practically no effect))
same,L (redroot pigweed) weedkilling efficacy grade,redroot pigweed [24],0 (weed kill ratio 5% or less (practically no effect))
same,J (common wind-grass) weedkilling efficacy grade,common wind-grass [25],"5 (weed kill ratio 90% or more, (practically complete withering))"
same,B (bulrush) weedkilling efficacy grade,bulrush [26],0 (weed kill ratio 5% or less (practically no effect))
same,C (oval-leafed pondweed) weedkilling efficacy grade,oval-leafed pondweed [27],"4 (weed kill ratio 70% or more, less than 90%)"
same,I (Italian ryegrass) weedkilling efficacy grade,Italian ryegrass [28],0 (weed kill ratio 5% or less (practically no effect))
same,f (beet) effect on crop grade,beet [29],0 (weed kill ratio 5% or less (practically no effect))
same,a (transplanted rice) effect on crop grade,transplanted rice,0 (weed kill ratio 5% or less (practically no effect))
same,f (beet) effect on crop grade,beet [30],"2 (weed kill ratio 20% or more, less than 40%)"
same,K (Indian mallow) weedkilling efficacy grade,Indian mallow [31],0 (weed kill ratio 5% or less (practically no effect))
same,N (chickweed) weedkilling efficacy grade,chickweed [32],0 (weed kill ratio 5% or less (practically no effect))

# Source: US9738634B2, “Heterocyclic amide compound and herbicide” (SYNGENTA PARTICIPATIONS AG, priority 2013, dated 2017)
